# Laboratory results reported in ChEMBL document CHEMBL1157539, “Thousands of chemical starting points for antimalarial lead identification” (Nature, 2010).
# Several values for one entry are separate records, joined by “and”; a condition that tells them apart may be missing. Equal values may be shown once.
# System: Plasmodium falciparum
# Experiment: GSK_TCMDC: Inhibition of Plasmodium falciparum 3D7 in whole erythrocytes, using parasite LDH activity as an index of growth.
# Format: functional, organism-based
Structure (SMILES),"XC50 (Plasmodium falciparum, 3D7)",XC50
CN1CCC[C@@H](Oc2cc3c(cc2Br)CCN3C(=O)Nc2ccc(-c3ccncc3)c(Cl)c2)C1,624 nM,
O=C(Nc1ccc(OC2CCN(Cc3ccsc3)C2)c(Cl)c1)c1ccco1 (stereo not given),602 nM,
O=C(/C=C/c1ccc(Cl)c(Cl)c1)NCCCCCN1CCC(NC(=S)Nc2ccc(Cl)c(Cl)c2)CC1,528 nM,
COCCNCc1cccc(-c2ccc(CNC3CCN(Cc4ccccc4)CC3)cc2)c1,508 nM,
CN(C(=O)c1cc2c(-c3cncnc3)cccc2[nH]1)c1ccccc1,628 nM,
COc1ccc2[nH]ccc(=NN=Cc3ccncc3)c2c1,584 nM,
CC1CCCN(S(=O)(=O)c2cc(Br)cc3c2N(C(=O)C2CC2)CC3)C1 (stereo not given),724 nM,
O=C(NC1CCN(Cc2ccccc2)CC1)c1csc2nc(-c3ccc(Cl)cc3)cn12,911 nM,
O=C(Nc1cccc2ccccc12)N1CCc2cc3nccc(N4CCN5CCC[C@H]5C4)c3cc21,889 nM,
COc1ccccc1Cc1nc2ccccc2nc1SCC(=O)Nc1cccc(C(F)(F)F)c1,499 nM,
CC(C)COc1ccc2ccccc2c1CNCCCCCCNCc1c(OCC(C)C)ccc2ccccc12,695 nM,
C=C(C)C1CC=C(CN2CCC(N3CCc4cc(NC(=O)c5cc(C)on5)ccc43)C2)CC1 (stereo not given),707 nM,
N#Cc1ccc(-c2ccc(C(=O)NCCCCN3CCC(c4nc5ccccc5[nH]4)CC3)cc2)cc1,1010 nM,
COc1ccc(Nc2nccc(N3CCC(NC(=O)c4cc5ccccc5s4)C3)n2)cc1 (stereo not given),759 nM,
COC(=O)C(=O)c1c(-c2ccccc2)c(-c2ccc(OC)c(OC)c2)c2c3cc(OC)c(OC)cc3ccn12,636 nM,
Cc1nc(-c2ccc(-c3ccc(C(=O)Nc4ccc(I)c(OCC5CCCN5C)c4)cc3)c(C)c2)no1 (stereo not given),33 nM,
CCN1CCN(c2cc(C)c3cc(NC(=O)c4cccc(C(F)(F)F)c4)ccc3n2)CC1,568 nM,
CCCc1cc(O)c2c3c(c(=O)oc2c1)CN(C)CC3,873 nM,
Cc1cc(N2CCCCC2)nc2ccc(NC(=O)c3cccc([N+](=O)[O-])c3)cc12,378 nM,
O=C(Nc1ccc(Cl)c(Cl)c1)N1CCc2cc3nccc(N4CCN5CCC[C@H]5C4)c3cc21,628 nM,
CCc1cc2c(Sc3nc4ccccc4[nH]3)ncnc2s1,823 nM,
CCSc1ccccc1CON1C(=N)N=C(N)NC1(C)C,3.2 nM,
CCCN1CCN(CCCCNc2c3ccccc3nc3ccccc23)CC1,409 nM,
NCC(=O)c1cc2c(cc1N)OCCO2,1360 nM,
CCCc1nc2c(N3CCCN(C(=O)NC4CCCCC4)CC3)cccc2n1Cc1ccccn1,1160 nM,

Structure (SMILES),"XC50 (Plasmodium falciparum, 3D7)",XC50
COc1ccc(-n2nc(C)cc2C(=O)NCc2ccc(-c3c(C)noc3C)cc2)cc1,980 nM,
COc1cc2nc(N3CCC(CNC(=O)c4ccc(-c5ccc(C(=O)N(C)C)cc5OCCN(C)C)cc4)CC3)nc(N)c2cc1OC,842 nM,
Cc1cc(NC(=O)Nc2ccc3nc(C)oc3c2)c2cc(Cl)ccc2n1,1120 nM,
CCOC(=O)c1ccc(-n2c(C)cc(C=C3SC(=Nc4ccccc4)N(C4CCCC4)C3=O)c2C)cc1,1170 nM,
CCC1=C(CC2NCCc3cc(OC)c(OC)cc32)CC2c3cc(OC)c(OC)cc3CCN2C1 (stereo not given) [DIHYDROEMETINE],312 nM,
O=C(NCCCCCN1CCCN(C(=O)Nc2ccc(F)c(C(F)(F)F)c2)CC1)C1CC1c1ccc(Cl)c(Cl)c1 (stereo not given),1030 nM,
Nc1nc(N)c2c(CCc3ccc(Cl)c(Cl)c3)cccc2n1,669 nM,
C[C@H]1CN(Cc2cccc(-c3cc(CNC(=O)c4cccc(C(=O)c5ccc(Cl)c(Cl)c5)c4)ccc3F)c2)CCN1,1140 nM,
COc1ccc2nccc([C@@H](O)CN3CCC(NC(=O)/C=C/c4ccc(F)c5ccccc45)CC3)c2c1,184 nM,
CCCCCCN1CCCN(Cc2ccc(C(=O)Nc3ccc(F)c(F)c3)cc2)CC1,612 nM,
CC(C)COc1ccc(C(O)C(CN2CCCCC2)c2ccccc2)cc1 (stereo not given),923 nM,
CN(C)c1ccc(CN2CCCCC(NC(=O)c3cc(-c4ccccc4Cl)cs3)C2)cc1 (stereo not given),1060 nM,
Oc1ccc(CCNc2nc(NCCOc3ccccc3-c3ccccc3)nc(N3CCNCC3)n2)cc1,1040 nM,
Cc1ccc(Cn2ncc(NC3CCNCC3)c(Cl)c2=O)cc1NC(=O)Nc1ccc(-c2ccccc2)cc1,657 nM,
CCN(CC)CCCCNc1cc(-c2[nH]c(-c3c(Cl)cccc3Cl)nc2-c2ccc3cc(OC)ccc3c2)ccn1,958 nM,
CCCCCCCN1CCC(NC(=O)Nc2ccnc3ccc(OC)cc23)C(CO)C1 (stereo not given),176 nM,
FC(F)(F)c1ccc2[nH]ccc(=NN=Cc3ccc(Cl)cc3)c2c1,791 nM,
COc1cc(OC)cc(C(=O)Nc2cccc(-c3cn4ccc(C)cc4n3)c2)c1,994 nM,
O=c1cc(NCCCNC2CCCc3c2cc(Cl)c(Cl)c3Cl)[nH]c2ccccc12 (stereo not given),276 nM,
CC(C)(C)c1ccc(S(=O)(=O)Nc2cc(Cl)ccc2Cn2ccc(N3CCNCC3)nc2=O)cc1,827 nM,
Cc1ccc(S(=O)(=O)N(C)c2ccccc2C(=O)Nc2ccccc2Oc2ccccc2)cc1,919 nM,
CCCc1cc(OC)c(CC2c3cc(O)c(C)cc3CCN2C)cc1OC (stereo not given),701 nM,
O=C(CCCCCNC(=O)c1ccc(O)c(-c2ccc(Cl)c(Cl)c2)c1)NCCc1ccc(Cl)c(Cl)c1,756 nM,
CCCCC([C@@H](Cc1ccc2ccccc2c1)C(=O)N[C@H](C(=O)NC)C(C)(C)C)N(O)C=O (stereo not given in full),142 nM,
CNC(=O)c1ccc2nc(-c3ccc(-c4ccccc4)cc3)n(CC3CCN(CC4CCCC4)CC3)c2c1,42.5 nM,

Structure (SMILES),"XC50 (Plasmodium falciparum, 3D7)",XC50
O=C(NCCCN1CCCCC1)c1ccc(Nc2nccc(Nc3ccc(Oc4ccccc4)cc3)n2)cc1,626 nM,
COc1cc(C(=O)Nc2ccc(-c3nc4ccccc4[nH]3)cc2)cc(OC)c1OC,982 nM,
O=C(CCc1ccc(Cl)cc1Cl)NC1CCC(CN2CCC(c3c[nH]c4ccccc34)CC2)CC1 (stereo not given),,216 nM and 903 nM
CCCN1CCN(CC(O)CNC(=O)Nc2ccc(Br)cc2)CC1 (stereo not given),63 nM,
O=C(Nc1ccc(OC2CCN(Cc3ccsc3)C2)c(Cl)c1)c1cccs1 (stereo not given),960 nM,
Cc1ccc(O)c(C(=O)c2cc(C(=O)Nc3ccccc3C)c(=O)n(-c3ccccc3C)c2)c1,784 nM,
O=c1cc(NCCCNCc2ccc(C(F)(F)F)s2)[nH]c2ccccc12,200 nM,
Cc1nc(C)c(-c2ccc(Oc3ccc(OC(F)(F)F)cc3)cc2)c(OC(=O)c2ccccc2)c1Cl,182 nM,
Oc1ccc(CCNCCCCCCNCCc2ccc(Cl)c(Cl)c2)cc1O,726 nM,
COc1ccc(CNCc2ccc(F)cc2)cc1-c1ccc(S(=O)(=O)NCCN2CCCC2)cc1,1040 nM,
COc1ccccc1-c1cccc(Nc2c(Nc3ccc(Cl)cc3)c(=O)c2=O)c1,878 nM,
COc1ccc2ncc(F)c(CCN3CC[C@@H](CNCc4cc5c(cn4)OCS5)C3)c2n1,1160 nM,
Cc1cc(=NN=Cc2ccccc2)c2cc(F)ccc2[nH]1,579 nM,
CCNc1cc(CC)nc(Nc2ccc(C)cc2)n1,848 nM,
Cc1cccc2sc(N(CCCn3ccnc3)C(=O)C=Cc3cccs3)nc12,1280 nM,
O=C(Nc1cccc(CN2CCCN(Cc3ccc(F)cc3)CC2)c1)c1ccc(Cl)c(Cl)c1,958 nM,
Cc1ccc(CC(C)NCC(O)c2cccc(C(F)(F)F)c2)cc1 (stereo not given),,709 nM
O=C(NC(NC(=S)Nc1ccc([N+](=O)[O-])cc1)C(Cl)(Cl)Cl)c1cccc(Cl)c1 (stereo not given),731 nM,
CC1(C)NC(N)=NC(=N)N1OCCCOc1cc(Cl)cc(Cl)c1,3.2 nM,
Cc1ccc2ncc(Cl)c(CCN3CCC(NCc4ccc5c(n4)NC(=O)CS5)CC3)c2n1,1100 nM,
CN(CCCNCc1cccc2ccccc12)CCCNCc1cccc2ccccc12,722 nM,
COc1cc(Nc2ccnc3ccc(C(F)(F)F)cc23)ccc1OCCCc1ccccc1,765 nM,
COc1ccccc1NC(=O)c1cc(C(=O)c2cc(Cl)ccc2O)cn(-c2ccccc2OC)c1=O,943 nM,
c1ccc(CNCc2cccc(-c3cccc(-c4nc5ccccc5[nH]4)c3)c2)cc1,569 nM,
COc1ccc2ncc(F)c(CCN3CCC(NCc4cc(Br)c5c(c4)OCCO5)CC3)c2n1,190 nM,

Structure (SMILES),"XC50 (Plasmodium falciparum, 3D7)",XC50
Cc1cc(=NN=Cc2ccc(F)cc2)c2cccc(C)c2[nH]1,779 nM,
Cn1c(CN2CCC(N3CCc4cc(NC(=O)c5ccco5)ccc43)C2)cc2ccccc21 (stereo not given),876 nM,
CCCCCN1CCCN(Cc2cccc(NC(=O)c3ccc(-c4ccccc4)cc3)c2)CC1,697 nM,
O=C(Cc1ccc(Cl)cc1)NC1CCN(c2ccnc3cc(Cl)ccc23)C1 (stereo not given),226 nM,
FC(F)(F)c1ccc(/C=C/c2cncnc2Nc2ccc3[nH]c(Cc4ccccc4)nc3c2)cc1,608 nM,
N#CC(c1ccc(Cl)cc1)c1ccc2c(C(F)(F)F)cc(C(F)(F)F)nc2n1 (stereo not given),1010 nM,
CC1(C)NC(N)=NC(=N)N1OCCCc1c(Cl)cccc1Cl,3.2 nM,
CC1(CCCCN2CC=C(c3c[nH]c4ccccc34)CC2)C(=O)Nc2ccccc21 (stereo not given),138 nM,
Cc1cc(O)c(-c2ccc(S(=O)(=O)c3ccc(Cl)cc3)cc2)c(C)n1,877 nM,
O=C(COc1cnc2ccccc2n1)Nc1ccccc1Sc1ccc(Cl)cc1,728 nM,
CC(CNC(=O)c1cc2c(Cl)cc(Cl)cc2[nH]1)CNc1cc(=O)c2ccccc2[nH]1 (stereo not given),715 nM,
CC(CN(C)C)C(=O)Nc1ccc(-c2ccc(-c3nc4cc(F)ccc4[nH]3)cc2)cc1 (stereo not given),773 nM,
NC1=NC(c2ccccc2)N(c2ccccc2)C(N)=N1 (stereo not given),294 nM,
CN1CCN(c2ccnc3ccc(NC(=O)Nc4ccc(Br)cc4)cc23)CC1,92.5 nM,
CO/N=C(\C)c1ccc2c(c1)CCN(CCC1CCC(NC(=O)c3cccc(-c4noc(C)n4)c3)CC1)CC2 (stereo not given),244 nM,
COc1ccc(OCCn2cc(C(=O)c3ccco3)c3ccccc32)cc1,773 nM,
Oc1ccc(CCNc2nc(NCc3ccccc3-c3ccc(F)cc3)nc(N3CCNCC3)n2)cc1,1070 nM,
ON=C1CCc2cc(-c3nc(-c4ccc(OCCN5CCCCC5)cc4)[nH]c3-c3ccncc3)ccc21,804 nM,
C#CCOc1ccc(CC(C)NCC(O)c2cccc(C(F)(F)F)c2)cc1 (stereo not given),1030 nM,1190 nM
CCNc1cc(C(=O)N[C@@H](Cc2ccccc2)[C@H](O)CNC(C)CC(C)C)c(F)c(N2CCCCS2(=O)=O)c1 (stereo not given in full),1120 nM,
Cc1cccc2nc(-c3cccc(-c4ccc(NC(=O)Cc5c[nH]cn5)cc4)c3)[nH]c12,688 nM,
O=C(Nc1cccc(CN2CCCN(Cc3ccc(O)cc3)CC2)c1)c1ccc2ccccc2n1,938 nM,
COc1ccc(Nc2nccc(N3CCC(NC(=O)c4cccc(C#N)c4)C3)n2)cc1 (stereo not given),819 nM,
Cc1ccc(-c2cc(C(=O)Nc3ccc(S(=O)(=O)N4CCCC(C)C4)cc3)[nH]n2)c(O)c1 (stereo not given),280 nM,
